Assay results published in publication PMC10879502, “Linking ATP and allosteric sites to achieve superadditive binding with bivalent EGFR kinase inhibitors” (Communications Chemistry, 2024).

Key:
WT EGFR kinase domain = target: T1, WT EGFR kinase domain (Homo sapiens, UniProt P00533); experiment: HTRF KinEASE-TK kinase activity assay; type: biochemical; conditions: enzyme 10 nM, ATP 100 µM; read-out: Biochemical EGFR IC50, WT
T1 construct: The EGFR kinase domain (residues 696–1022) was cloned into pTriEx; 6xHis (N, cleaved yes); GST (N, cleaved yes); made in house; host or cells: SF9 insect cells, baculovirus

LYN = target: T2, LYN (Homo sapiens, UniProt P07948); experiment: KINOMEscan; type: binding; conditions: 1 μM
T2 construct: purchased Eurofins DiscoverX Corporation

MLK2 = target: T3, MLK2 (Homo sapiens, UniProt Q02779); experiment: KINOMEscan; type: binding; conditions: 1 μM
T3 construct: purchased Eurofins DiscoverX Corporation

TAK1 = target: T4, TAK1 (Homo sapiens, UniProt O43318); experiment: KINOMEscan; type: binding; conditions: 1 μM
T4 construct: purchased Eurofins DiscoverX Corporation
T4 sequence (O43318 whole entry): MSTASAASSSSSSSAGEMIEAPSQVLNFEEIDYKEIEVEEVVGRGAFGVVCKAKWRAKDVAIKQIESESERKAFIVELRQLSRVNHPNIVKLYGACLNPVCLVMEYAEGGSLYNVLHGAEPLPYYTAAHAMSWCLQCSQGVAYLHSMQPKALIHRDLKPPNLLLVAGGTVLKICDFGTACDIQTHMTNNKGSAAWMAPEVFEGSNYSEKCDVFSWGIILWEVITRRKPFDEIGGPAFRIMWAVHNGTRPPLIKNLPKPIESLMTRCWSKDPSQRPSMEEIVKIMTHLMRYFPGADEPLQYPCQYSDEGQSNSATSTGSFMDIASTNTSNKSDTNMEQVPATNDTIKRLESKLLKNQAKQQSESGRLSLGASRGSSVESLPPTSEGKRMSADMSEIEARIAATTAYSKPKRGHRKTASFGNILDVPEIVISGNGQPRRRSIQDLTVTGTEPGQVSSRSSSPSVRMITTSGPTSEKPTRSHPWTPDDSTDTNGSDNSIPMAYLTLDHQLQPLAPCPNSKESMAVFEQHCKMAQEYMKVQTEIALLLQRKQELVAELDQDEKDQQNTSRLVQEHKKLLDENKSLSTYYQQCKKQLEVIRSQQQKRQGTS

CDK5 = CDK5 (Homo sapiens, UniProt Q00535); experiment: KINOMEscan; type: binding; conditions: 1 μM
Chain of CDK5 (Q00535 whole entry): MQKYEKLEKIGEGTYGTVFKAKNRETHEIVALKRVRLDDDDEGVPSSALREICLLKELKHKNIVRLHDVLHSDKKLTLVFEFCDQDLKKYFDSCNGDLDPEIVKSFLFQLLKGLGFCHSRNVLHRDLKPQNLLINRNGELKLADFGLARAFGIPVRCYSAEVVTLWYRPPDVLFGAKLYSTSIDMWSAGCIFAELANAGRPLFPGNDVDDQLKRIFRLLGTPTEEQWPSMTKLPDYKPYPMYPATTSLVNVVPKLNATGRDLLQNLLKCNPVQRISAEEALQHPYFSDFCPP

WNK1 = WNK1 (Homo sapiens, UniProt Q9H4A3); experiment: KINOMEscan; type: binding; conditions: 1 μM
NEK7 = NEK7 (Homo sapiens, UniProt Q8TDX7); experiment: KINOMEscan; type: binding; conditions: 1 μM
KIT(L576P) = target: T5, KIT(L576P) (Homo sapiens, UniProt P10721, L576P); experiment: KINOMEscan; type: binding; conditions: 1 μM
T5 construct: purchased Eurofins DiscoverX (KINOMEscan)
T5 sequence (P10721 26-976 L576P): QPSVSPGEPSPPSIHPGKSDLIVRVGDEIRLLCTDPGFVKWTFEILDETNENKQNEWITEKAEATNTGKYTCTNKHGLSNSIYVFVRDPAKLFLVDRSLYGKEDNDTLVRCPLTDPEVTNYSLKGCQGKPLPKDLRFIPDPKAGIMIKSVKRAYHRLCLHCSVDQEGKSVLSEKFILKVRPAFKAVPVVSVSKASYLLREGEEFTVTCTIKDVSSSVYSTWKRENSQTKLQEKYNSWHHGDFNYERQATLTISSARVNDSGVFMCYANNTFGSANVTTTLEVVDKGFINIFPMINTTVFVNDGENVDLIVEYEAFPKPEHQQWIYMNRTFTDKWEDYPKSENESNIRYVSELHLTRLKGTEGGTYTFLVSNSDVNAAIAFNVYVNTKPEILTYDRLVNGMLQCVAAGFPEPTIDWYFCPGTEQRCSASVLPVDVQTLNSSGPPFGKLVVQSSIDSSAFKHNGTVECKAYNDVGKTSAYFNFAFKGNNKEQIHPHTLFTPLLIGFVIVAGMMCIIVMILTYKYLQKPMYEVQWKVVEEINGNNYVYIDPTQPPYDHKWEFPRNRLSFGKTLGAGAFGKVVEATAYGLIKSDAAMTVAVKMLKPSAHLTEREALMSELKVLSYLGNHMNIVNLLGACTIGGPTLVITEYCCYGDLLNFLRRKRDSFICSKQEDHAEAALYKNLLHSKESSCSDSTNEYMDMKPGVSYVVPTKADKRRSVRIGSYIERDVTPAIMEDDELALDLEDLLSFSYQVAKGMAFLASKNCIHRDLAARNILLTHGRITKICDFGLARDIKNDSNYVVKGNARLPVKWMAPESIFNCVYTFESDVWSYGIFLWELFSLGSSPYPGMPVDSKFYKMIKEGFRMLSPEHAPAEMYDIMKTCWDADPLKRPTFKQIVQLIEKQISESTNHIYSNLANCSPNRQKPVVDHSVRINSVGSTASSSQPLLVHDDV

ABL1-phosphorylated = target: T6, ABL1-phosphorylated (Homo sapiens, UniProt P00519); experiment: KINOMEscan; type: binding; conditions: 1 μM
T6 construct: purchased Eurofins DiscoverX Corporation

ERK4 = ERK4 (Homo sapiens, UniProt P31152); experiment: KINOMEscan; type: binding; conditions: 1 μM
CSNK2A1 = target: T7, CSNK2A1 (Homo sapiens, UniProt P68400); experiment: KINOMEscan; type: binding; conditions: 1 μM
T7 construct: purchased Eurofins DiscoverX Corporation

MST4 = target: T8, MST4 (Homo sapiens, UniProt Q9P289); experiment: KINOMEscan; type: binding; conditions: 1 μM
T8 construct: purchased Eurofins DiscoverX Corporation
T8 sequence (Q9P289 whole entry): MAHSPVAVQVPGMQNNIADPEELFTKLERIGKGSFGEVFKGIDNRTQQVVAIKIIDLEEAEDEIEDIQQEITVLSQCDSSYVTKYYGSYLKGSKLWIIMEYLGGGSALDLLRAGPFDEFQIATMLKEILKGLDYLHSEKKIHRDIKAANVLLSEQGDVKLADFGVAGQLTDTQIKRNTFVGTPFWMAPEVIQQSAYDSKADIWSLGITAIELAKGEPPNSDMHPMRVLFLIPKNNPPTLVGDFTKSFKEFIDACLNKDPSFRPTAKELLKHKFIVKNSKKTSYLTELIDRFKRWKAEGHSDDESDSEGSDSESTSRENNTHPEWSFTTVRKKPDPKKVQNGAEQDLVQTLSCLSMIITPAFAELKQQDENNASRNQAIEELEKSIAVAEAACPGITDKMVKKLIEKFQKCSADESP

KIT = target: T9, KIT (Homo sapiens, UniProt P10721); experiment: KINOMEscan; type: binding; conditions: 1 μM
T9 construct: purchased Eurofins DiscoverX (KINOMEscan)
T9 sequence (P10721 26-976): as the sequence (P10721 26-976 L576P) above, with P551L counted along it

BMPR1B = target: T10, BMPR1B (Homo sapiens, UniProt O00238); experiment: KINOMEscan; type: binding; conditions: 1 μM
T10 construct: purchased Eurofins DiscoverX Corporation (KINOMEscan)

CLK2 = CLK2 (Homo sapiens, UniProt P49760); experiment: KINOMEscan; type: binding; conditions: 1 μM
[1] = target: T11, JAK1(JH1domain-catalytic) (Homo sapiens, UniProt P23458); experiment: KINOMEscan; type: binding; conditions: 1 μM
T11 construct: JAK1(JH1domain-catalytic); purchased Eurofins DiscoverX (KINOMEscan)
T11 sequence (P23458 875-1153 limits assumed): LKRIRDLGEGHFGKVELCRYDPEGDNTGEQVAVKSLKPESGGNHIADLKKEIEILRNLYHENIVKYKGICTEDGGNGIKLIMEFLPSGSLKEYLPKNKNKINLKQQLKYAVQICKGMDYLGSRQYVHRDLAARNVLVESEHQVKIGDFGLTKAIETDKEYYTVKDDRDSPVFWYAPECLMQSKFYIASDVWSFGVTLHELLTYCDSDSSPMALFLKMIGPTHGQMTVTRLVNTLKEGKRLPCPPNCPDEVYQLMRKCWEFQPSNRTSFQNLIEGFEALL

STK39 = target: T12, STK39 (Homo sapiens, UniProt Q9UEW8); experiment: KINOMEscan; type: binding; conditions: 1 μM
T12 construct: purchased Eurofins DiscoverX Corporation

FLT3(ITD+D835V) = experiment: KINOMEscan; type: binding; conditions: 1 μM
[2] = target: TYK2(JH2domain-pseudokinase) (Homo sapiens, UniProt P29597); experiment: KINOMEscan; type: binding; conditions: 1 μM
PFCDPK1(P.falciparum) = PFCDPK1(P.falciparum) (Plasmodium falciparum, UniProt P62344); experiment: KINOMEscan; type: binding; conditions: 1 μM
MTOR = target: T13, MTOR (Homo sapiens, UniProt P42345); experiment: KINOMEscan; type: binding; conditions: 1 μM
T13 construct: purchased Eurofins DiscoverX Corporation

HCK = target: T14, HCK (Homo sapiens, UniProt P08631); experiment: KINOMEscan; type: binding; conditions: 1 μM
T14 construct: purchased Eurofins DiscoverX Corporation

[3] = target: T15, EGFR WT, cytoplasmic domain (669–1210) (Homo sapiens, UniProt P00533); experiment: Time-dependent kinase inhibition assay (Sox-based substrate); type: biochemical; conditions: enzyme 2.0 nM, 1 mM ATP
T15 construct: EGFR WT, cytoplasmic domain (669–1210), GST-tagged, Carna; purchased Carna 08-115
T15 sequence (P00533 669-1210): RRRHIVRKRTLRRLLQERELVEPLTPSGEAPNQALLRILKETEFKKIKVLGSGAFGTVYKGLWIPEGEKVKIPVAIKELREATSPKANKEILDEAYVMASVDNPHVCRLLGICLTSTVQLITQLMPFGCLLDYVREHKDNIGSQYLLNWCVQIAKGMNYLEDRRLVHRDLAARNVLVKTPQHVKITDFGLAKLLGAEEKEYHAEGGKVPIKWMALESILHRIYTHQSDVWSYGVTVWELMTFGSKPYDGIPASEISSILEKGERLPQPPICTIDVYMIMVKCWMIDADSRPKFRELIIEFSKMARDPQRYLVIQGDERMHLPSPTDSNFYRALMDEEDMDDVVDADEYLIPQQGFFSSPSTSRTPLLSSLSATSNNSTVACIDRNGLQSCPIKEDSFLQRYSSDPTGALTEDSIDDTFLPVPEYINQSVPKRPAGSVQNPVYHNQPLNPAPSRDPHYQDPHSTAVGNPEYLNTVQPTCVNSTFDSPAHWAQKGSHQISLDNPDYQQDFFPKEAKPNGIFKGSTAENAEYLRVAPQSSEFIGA
Description: (§1) Biochemical assays were performed with commercially available EGFR WT, cytoplasmic domain (669–1210), GST-tagged, Carna (Cat#/Lot#: 08-115/21CBS-0127H), EGFR [L858R], cytoplasmic domain (668-end), GST-tagged, SignalChem (Cat#/Lot#: E10-122BG/D2411-4), EGFR [T790M/L858R] cytoplasmic domain (669–1210), GST-tagged, Carna (Cat#/Lot#: 08-510/12CBS-0765M). […] BSA was not included in this experiment to prevent interference with irreversible inhibitor characterization via off-target binding. All reactions were run for 240 min at 30 °C. Time-dependent fluorescence from the Sox-based substrate was monitored in PerkinElmer ProxiPlate-384 Plus, white shallow well microplates (Cat. #6008280) Biotek Synergy Neo 2 microplate reader with excitation (360 nm) and emission (485 nm) wavelengths. 4 was dosed between 0 and 10 µM in 24-point curves with 1.5-fold dilutions. Fluorescence, determined with identical reactions but lacking purified enzyme or crude cell lysate was subtracted from the total fluorescence signal for each time point, with both determined in duplicate, to obtain corrected relative fluorescence units (RFU). Corrected RFU values then were plotted vs. time and the reaction velocity for the first ~40 min (initial reaction rates) was determined from the slope using GraphPad Prism (La Jolla, CA) with units of RFU/min.

[4] = target: T16, EGFR [L858R], cytoplasmic domain (668-end) (Homo sapiens, UniProt P00533, L858R); experiment: as above; type: biochemical; conditions: LR, enzyme 1.0 nM, 1 mM ATP
T16 construct: EGFR [L858R], cytoplasmic domain (668-end), GST-tagged, SignalChem; purchased SignalChem E10-122BG
T16 sequence (P00533 669-1210 L858R limits assumed): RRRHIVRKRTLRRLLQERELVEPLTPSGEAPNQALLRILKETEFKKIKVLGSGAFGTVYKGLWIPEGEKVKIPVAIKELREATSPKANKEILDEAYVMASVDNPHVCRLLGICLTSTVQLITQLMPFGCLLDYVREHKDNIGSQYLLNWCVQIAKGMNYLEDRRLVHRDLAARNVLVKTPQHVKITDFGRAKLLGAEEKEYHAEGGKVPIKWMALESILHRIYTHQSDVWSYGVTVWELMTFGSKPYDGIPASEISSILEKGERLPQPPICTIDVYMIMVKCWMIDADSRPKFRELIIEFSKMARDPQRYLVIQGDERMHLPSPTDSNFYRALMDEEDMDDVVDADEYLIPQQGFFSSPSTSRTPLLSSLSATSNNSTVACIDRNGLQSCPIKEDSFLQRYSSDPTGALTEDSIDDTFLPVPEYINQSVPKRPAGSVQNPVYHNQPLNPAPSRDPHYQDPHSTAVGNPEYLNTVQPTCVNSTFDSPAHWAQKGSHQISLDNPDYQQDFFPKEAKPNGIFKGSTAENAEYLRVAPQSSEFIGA
Description: as §1

[5] = target: T17, EGFR [T790M/L858R] cytoplasmic domain (669–1210) (Homo sapiens, UniProt P00533, L858R/T790M); experiment: as above; type: biochemical; conditions: LRTM, enzyme 2.0 nM, 1 mM ATP
T17 construct: EGFR [T790M/L858R] cytoplasmic domain (669–1210), GST-tagged, Carna; purchased Carna 08-510
T17 sequence (P00533 669-1210 T790M/L858R): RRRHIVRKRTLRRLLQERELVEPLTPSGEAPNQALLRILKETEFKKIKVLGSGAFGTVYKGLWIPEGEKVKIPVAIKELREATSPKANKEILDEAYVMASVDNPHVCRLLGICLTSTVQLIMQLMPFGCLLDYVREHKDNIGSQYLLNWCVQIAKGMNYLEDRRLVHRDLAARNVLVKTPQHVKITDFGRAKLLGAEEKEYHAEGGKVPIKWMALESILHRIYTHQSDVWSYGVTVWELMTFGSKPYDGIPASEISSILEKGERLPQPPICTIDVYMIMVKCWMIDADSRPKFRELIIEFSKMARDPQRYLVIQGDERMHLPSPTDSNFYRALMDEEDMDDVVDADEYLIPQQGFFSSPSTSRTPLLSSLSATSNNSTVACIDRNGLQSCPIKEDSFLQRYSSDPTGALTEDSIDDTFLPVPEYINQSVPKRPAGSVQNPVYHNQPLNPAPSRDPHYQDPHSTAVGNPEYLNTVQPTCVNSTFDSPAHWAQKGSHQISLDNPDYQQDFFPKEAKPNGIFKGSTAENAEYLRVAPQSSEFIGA
Description: as §1

PAK4 = PAK4 (Homo sapiens, UniProt O96013); experiment: KINOMEscan; type: binding; conditions: 1 μM
NEK11 = target: T18, NEK11 (Homo sapiens, UniProt Q8NG66); experiment: KINOMEscan; type: binding; conditions: 1 μM
T18 construct: purchased Eurofins DiscoverX Corporation
T18 sequence (Q8NG66 whole entry): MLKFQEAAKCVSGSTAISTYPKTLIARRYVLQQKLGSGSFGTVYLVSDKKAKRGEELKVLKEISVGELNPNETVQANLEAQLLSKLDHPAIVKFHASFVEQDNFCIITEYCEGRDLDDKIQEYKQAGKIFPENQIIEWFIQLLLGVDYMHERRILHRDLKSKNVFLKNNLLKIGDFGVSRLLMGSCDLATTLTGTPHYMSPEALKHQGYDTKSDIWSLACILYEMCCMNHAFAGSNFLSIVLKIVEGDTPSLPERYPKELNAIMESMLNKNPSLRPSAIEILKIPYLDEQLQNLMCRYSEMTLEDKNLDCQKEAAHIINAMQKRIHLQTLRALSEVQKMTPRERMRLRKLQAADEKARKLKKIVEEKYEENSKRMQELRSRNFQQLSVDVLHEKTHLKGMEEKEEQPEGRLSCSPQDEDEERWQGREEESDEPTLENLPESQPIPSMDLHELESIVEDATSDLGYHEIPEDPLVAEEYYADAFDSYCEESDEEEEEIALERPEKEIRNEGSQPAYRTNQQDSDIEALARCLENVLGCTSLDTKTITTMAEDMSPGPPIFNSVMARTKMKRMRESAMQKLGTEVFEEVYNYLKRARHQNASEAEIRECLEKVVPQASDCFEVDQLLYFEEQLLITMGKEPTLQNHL

EPHA4 = EPHA4 (Homo sapiens, UniProt P54764); experiment: KINOMEscan; type: binding; conditions: 1 μM

## CSc1nc(-c2cccc(NC(=O)c3cccc4c3NC(=O)c3ccccc3N4)c2)c(-c2ccnc(NC(C)=O)c2)[nH]1 [Compound 2]
WT EGFR kinase domain
  IC50: < 0.01 µM

## C=CC(=O)Nc1ccc(OC)c(Nc2cc(-c3[nH]c(CC)nc3-c3cccc(NC(=O)c4cccc5c4NC(=O)c4ccccc4N5)c3)ccn2)c1 [Compound 4]
LYN
  POC: 22% of control
MLK2
  POC: 97% of control
TAK1
  POC: 95% of control
CDK5
  POC: 100% of control
WNK1
  POC: 100% of control
NEK7
  POC: 86% of control
KIT(L576P)
  POC: 84% of control
ABL1-phosphorylated
  POC: 80% of control
ERK4
  POC: 100% of control
CSNK2A1
  POC: 100% of control
MST4
  POC: 94% of control
KIT
  POC: 100% of control
BMPR1B
  POC: 100% of control
CLK2
  POC: 63% of control
[1]
  POC: 91% of control
STK39
  POC: 85% of control
FLT3(ITD+D835V)
  POC: 100% of control
[2]
  POC: 100% of control
PFCDPK1(P.falciparum)
  POC: 87% of control
MTOR
  POC: 100% of control
HCK
  POC: 14% of control
[3]
  Ki: 1.2 ± 0.04 µM
  kinact: 0.003 s⁻¹
  kinact/KI: 2500 ± 30 M⁻¹ s⁻¹
[4]
  Ki: 0.61 ± 0.03 µM
  kinact: 0.00867 s⁻¹
  kinact/KI: 14100 ± 300 M⁻¹ s⁻¹
[5]
  Ki: 1.6 ± 0.1 µM
  kinact: 0.00167 s⁻¹
  kinact/KI: 1070 ± 40 M⁻¹ s⁻¹
PAK4
  POC: 89% of control
NEK11
  POC: 100% of control
EPHA4
  POC: 95% of control
